This is an account of results in PMC5824344 (ACS Chemical Biology, 2017).

The structures appear in SMILES notation.

Data set [1] deals with GluI and GluII in Jurkat (T lymphocyte) cells. Put plainly: Free oligosaccharide (FOS) assay in Jurkat cells. The data set is classed as cell-based, human. To be noted: 48 h, 50 µm. On the procedure: 5 Cell and Virus Culture and Assays
5.1 Culture of Cell Lines
The human hepatoma cell line Huh7.5 (Apath, LLC) was cultured in Dulbecco’s modiﬁed Eagle medium (DMEM) with Glutamax (Gibco) supplemented with 100 µg mL−1 strepto-mycin (Sigma), 100 U mL−1 penicillin (Sigma), 100 µm MEM non-essential amino acids (Gibco) and 10% (volume/volume, v/v) heat-inactivated (56 ◦C, 30 min) fetal calf serum (FCS, Seralab). The human monocytic cell line HL60 (ATCC), human T lymphocyte cell line Jurkat (ATCC), and human B lymphocyte cell line Raji (ATCC) were each maintained in RPMI 1640 media with Glutamax (Gibco) supplemented with 100 µg mL−1 streptomycin, 100 U mL−1 penicillin and 10% (v/v) FCS. […]
Cell viability was measured using the CellTiter 96 R© AQueous One Solution Cell Prolifera-tion MTA (3-(4,5-dimethylthiazol-2-yl)-5-(3-carboxymethoxyphenyl)-2-(4-sulfophenyl)-2H - […]
After a further one to two hour incubation, the absorbance at 490 nm was measured on a Molecular Devices SpectraMax M5 microplate reader. […]
Absorbances were averaged across replicates, and corrected for background by subtracting the value for media-only wells. Each drug treatment was then evaluated as a percentage of untreated cells. […]
FOS analysis was carried out as described previously. […] Before purifying the FOS, each sample was analyzed for protein content using the modiﬁed Bradford assay. […]

Data set [2] concerns the target T1, Rat intestinal cellobiase (Rattus norvegicus, UniProt Q02401).
T1 sequence (Q02401 868-1928): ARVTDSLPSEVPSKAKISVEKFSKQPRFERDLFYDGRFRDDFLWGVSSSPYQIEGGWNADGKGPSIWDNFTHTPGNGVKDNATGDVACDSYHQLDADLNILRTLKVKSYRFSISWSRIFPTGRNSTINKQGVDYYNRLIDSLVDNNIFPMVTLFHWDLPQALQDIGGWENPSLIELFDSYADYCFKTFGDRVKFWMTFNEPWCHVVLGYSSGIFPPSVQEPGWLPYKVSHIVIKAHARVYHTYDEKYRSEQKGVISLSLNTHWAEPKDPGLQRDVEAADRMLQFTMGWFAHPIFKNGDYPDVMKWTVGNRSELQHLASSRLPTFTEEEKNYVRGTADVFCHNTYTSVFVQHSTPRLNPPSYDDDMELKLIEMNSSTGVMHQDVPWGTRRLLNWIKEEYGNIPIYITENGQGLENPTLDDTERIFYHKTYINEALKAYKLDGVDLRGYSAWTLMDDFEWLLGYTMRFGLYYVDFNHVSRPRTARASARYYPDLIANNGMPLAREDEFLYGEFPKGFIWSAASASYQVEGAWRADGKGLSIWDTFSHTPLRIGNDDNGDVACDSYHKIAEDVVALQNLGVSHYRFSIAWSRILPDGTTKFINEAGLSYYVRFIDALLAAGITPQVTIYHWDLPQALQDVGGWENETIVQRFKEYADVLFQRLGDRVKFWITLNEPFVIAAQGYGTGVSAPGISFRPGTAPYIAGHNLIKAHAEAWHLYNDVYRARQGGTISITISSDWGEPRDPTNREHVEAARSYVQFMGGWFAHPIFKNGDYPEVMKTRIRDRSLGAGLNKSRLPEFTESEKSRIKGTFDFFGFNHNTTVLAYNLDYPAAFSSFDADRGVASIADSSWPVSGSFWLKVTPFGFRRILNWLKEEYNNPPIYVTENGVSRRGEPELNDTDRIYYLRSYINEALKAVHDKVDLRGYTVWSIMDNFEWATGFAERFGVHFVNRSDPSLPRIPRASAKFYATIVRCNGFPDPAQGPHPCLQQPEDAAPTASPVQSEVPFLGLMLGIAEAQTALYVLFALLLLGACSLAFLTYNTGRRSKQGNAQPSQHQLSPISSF
Put plainly: Inhibition of rat intestinal cellobiase (β-glucosidase; natural substrate, glucose release). The settings on record: read-out: inhibition of intestinal cellobiase at the maximum tested concentration. The data set is classed as biochemical.

The conditions of data set [3]: cited from earlier work.
In data set [4] the test system is DENV2 strain 16681 in primary human MDMΦ. Set-up: method as in PMID 23070155. To be noted: MDMΦ cells, same system; read-out: IC50 for DENV inhibition; cited from earlier work.

Regarding `Cc1c(C)c2c(c(C)c1OCCCCCN1CC(O)C(O)C(O)C1CO)CCC(C)(CCCC(C)CCCC(C)CCCC(C)C)O2` (stereo not drawn) [Compound 4, 5′-tocopheroxypentyl-DNJ], the entries for the “glucosylated free oligosaccharides (FOS) observed after treatment” value in data set [1] and in data set [1] (listed as ToP-DNJ 4) were “not in Jurkat” and “no glucosylated FOS were detected”, respectively. Moreover, in data set [2], the inhibition at 50 µM was less than 50%.

By IC50 is commonly meant the concentration that gives 50% inhibition. In the case of `CCCCN1CC(O)C(O)C(O)C1CO` [Compound 2, N-butyl-D-1-deoxynojirimycin, reference compound], the plasma half-life in data set [3] is 5 h. For the same molecule, the “tissue in which compound is found in the highest amounts” value in data set [3] (renally excreted) is “highest amounts in the kidneys and bladder”. Also, in data set [4], the IC50 was 6 µM.
